ChEMBL document CHEMBL5390201, “The Natural Alkaloid (-)-N-Hydroxyapiosporamide Suppresses Colorectal Tumor Progression as an NF-κB Pathway Inhibitor by Targeting the TAK1-TRAF6 Complex” (J Nat Prod, 2023)
Calls of active or inactive are those of the source. The rule behind the calls is not given here.

Assays:
RAW264.7 = experiment: Inhibition of LPS-induced NFkappaB activation in mouse RAW264.7 cells assessed as inhibition of IkappaBalpha phosphorylation preincubated for 24 hrs followed by LPS stimulation for 3 hrs by Western blot analysis; assay type: cell-based; conditions: dose 1-10 µM, time 27.0 hrs
HCT-116 [1] = experiment: Induction of cell cycle arrest in human HCT-116 cells assessed as decrease in Cdc2 protein expression upto 10 uM incubated for 24 hrs by Western blot analysis; assay type: functional, cell-based
HCT-116 [2] = experiment: Induction of cell cycle arrest in human HCT-116 cells assessed as decrease in P-cdc2 protein expression upto 10 uM incubated for 24 hrs by Western blot analysis; assay type: functional, cell-based
[3] = target: T1, Nuclear factor NF-kappa-B complex (Homo sapiens) (UniProt Q00653+P19838+Q04206); experiment: Inhibition of TNF-alpha induced NFkappaB activation in human HT-29 cells assessed as inhibition of IkappaBalpha phosphorylation at 1 to 10 uM pretreated for 24 hrs followed by TNFalpha stimulation for 10 mins by Western blot analysis; assay type: cell-based; conditions: dose 1-10 µM, time 1450.0 min
T1 sequence (P19838 whole entry, looked up): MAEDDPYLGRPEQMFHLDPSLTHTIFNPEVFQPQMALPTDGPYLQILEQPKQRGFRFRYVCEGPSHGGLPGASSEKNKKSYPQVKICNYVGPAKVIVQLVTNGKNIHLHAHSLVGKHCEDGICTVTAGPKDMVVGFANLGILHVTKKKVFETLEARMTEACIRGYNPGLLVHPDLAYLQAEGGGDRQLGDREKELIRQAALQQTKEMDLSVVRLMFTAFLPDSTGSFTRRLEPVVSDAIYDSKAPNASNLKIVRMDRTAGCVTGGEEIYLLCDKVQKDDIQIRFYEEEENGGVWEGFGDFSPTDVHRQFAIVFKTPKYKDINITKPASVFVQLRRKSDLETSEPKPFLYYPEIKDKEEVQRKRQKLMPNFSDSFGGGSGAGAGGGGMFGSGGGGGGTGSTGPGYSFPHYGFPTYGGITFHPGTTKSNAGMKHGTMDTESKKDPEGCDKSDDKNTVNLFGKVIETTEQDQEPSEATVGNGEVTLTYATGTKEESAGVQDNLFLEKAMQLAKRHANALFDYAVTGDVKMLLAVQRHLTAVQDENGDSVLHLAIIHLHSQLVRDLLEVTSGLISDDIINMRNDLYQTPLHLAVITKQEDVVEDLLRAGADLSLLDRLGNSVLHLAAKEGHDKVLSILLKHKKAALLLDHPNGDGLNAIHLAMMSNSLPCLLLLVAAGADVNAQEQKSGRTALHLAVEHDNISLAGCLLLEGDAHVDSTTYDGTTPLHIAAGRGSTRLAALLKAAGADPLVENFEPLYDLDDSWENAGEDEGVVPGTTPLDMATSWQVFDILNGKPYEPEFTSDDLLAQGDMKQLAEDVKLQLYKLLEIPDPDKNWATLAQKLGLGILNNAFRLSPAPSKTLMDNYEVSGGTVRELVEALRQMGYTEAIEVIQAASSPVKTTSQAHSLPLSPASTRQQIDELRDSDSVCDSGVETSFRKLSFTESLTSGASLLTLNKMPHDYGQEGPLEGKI
T1 sequence (Q00653 whole entry, looked up): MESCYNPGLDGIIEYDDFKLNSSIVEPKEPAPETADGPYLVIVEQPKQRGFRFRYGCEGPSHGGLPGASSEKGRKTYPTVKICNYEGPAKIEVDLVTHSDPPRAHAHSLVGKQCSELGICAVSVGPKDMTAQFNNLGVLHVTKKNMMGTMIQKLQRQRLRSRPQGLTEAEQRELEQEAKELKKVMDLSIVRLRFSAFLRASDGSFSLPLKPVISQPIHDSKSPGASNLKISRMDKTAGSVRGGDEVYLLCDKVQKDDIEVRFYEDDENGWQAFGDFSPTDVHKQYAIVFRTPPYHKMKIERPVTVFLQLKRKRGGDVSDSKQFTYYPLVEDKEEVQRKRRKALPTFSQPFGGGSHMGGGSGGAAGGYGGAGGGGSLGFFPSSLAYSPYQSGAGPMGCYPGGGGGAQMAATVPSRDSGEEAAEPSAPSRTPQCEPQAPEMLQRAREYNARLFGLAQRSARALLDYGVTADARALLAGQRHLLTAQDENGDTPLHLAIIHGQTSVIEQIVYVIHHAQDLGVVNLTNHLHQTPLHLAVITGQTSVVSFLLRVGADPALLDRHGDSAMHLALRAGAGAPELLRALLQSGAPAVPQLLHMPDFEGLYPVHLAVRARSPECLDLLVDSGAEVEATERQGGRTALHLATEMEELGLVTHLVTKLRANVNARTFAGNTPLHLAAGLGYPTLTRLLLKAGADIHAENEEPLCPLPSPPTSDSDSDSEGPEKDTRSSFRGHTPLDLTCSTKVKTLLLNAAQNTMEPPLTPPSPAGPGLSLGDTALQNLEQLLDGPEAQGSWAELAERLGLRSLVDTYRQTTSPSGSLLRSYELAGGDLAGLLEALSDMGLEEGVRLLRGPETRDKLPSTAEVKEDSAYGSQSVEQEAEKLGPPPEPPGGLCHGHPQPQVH
T1 sequence (Q04206 whole entry, looked up): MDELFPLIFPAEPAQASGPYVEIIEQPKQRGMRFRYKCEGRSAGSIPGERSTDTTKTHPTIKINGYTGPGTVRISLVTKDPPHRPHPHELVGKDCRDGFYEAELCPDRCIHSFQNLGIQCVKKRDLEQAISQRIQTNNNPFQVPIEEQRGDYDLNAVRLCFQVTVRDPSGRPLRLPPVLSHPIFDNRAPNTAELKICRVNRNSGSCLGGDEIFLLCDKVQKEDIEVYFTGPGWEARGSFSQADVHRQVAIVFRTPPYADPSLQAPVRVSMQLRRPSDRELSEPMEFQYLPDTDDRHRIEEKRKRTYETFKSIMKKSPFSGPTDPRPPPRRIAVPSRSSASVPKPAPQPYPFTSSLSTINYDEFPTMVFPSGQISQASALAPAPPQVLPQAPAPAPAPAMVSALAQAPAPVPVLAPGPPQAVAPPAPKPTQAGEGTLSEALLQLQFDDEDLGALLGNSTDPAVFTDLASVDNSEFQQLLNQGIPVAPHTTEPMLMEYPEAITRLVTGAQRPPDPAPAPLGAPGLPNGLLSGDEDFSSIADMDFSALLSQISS

HT-29 [4] = experiment: Induction of autophagy in human HT-29 cells assessed as increase in LC3 protein expression at 1 to 10 uM incubated for 24 hrs by Western blot analysis; assay type: functional, cell-based; conditions: dose 1-10 µM
HCT-116 [5] = experiment: Induction of apoptosis in human HCT-116 cells assessed as viable cells at 0.5 uM incubated for 24 hrs by Annexin V-FITC/PI staining based flow cytometric analysis (reference value: 88.8%); assay type: functional; conditions: read-out: Activity
HT-29 [6] = experiment: Induction of cell cycle arrest in human HT-29 cells assessed as accumulation of cells at S phase at 5 uM by RNase/PI staining based flow cytometry analysis (reference value: 39.34%); assay type: functional
HT-29 [7] = experiment: Induction of apoptosis in human HT-29 cells assessed as viable cells at 5 uM incubated for 24 hrs by Annexin V-FITC/PI staining based flow cytometric analysis (reference value: 88.3 %); assay type: functional; conditions: read-out: Activity
HT-29 [8] = experiment: Induction of apoptosis in human HT-29 cells assessed as necrotic cells at 1 uM incubated for 24 hrs by Annexin V-FITC/PI staining based flow cytometric analysis (reference value: 0.14 %); assay type: functional
HCT-116 [9] = experiment: Induction of apoptosis in human HCT-116 cells assessed as inhibition of PARP protein expression measured for 24 hrs by Western blot analysis; assay type: functional, cell-based; conditions: dose 0-10 µM
HT-29 [10] = experiment: Induction of cell cycle arrest in human HT-29 cells assessed as accumulation of cells at S phase at 1 uM by RNase/PI staining based flow cytometry analysis (reference value: 39.34%); assay type: functional
HT-29 [11] = experiment: Cytotoxicity against human HT-29 cells assessed as decrease in cell viability incubated for 48 hrs by SRB assay; assay type: functional, cell-based; conditions: HT-29, 48 h
[12] = Half life in Sprague-Dawley rat at 10 mg/kg, ip measured for 24 hrs by HPLC-MS/MS analysis; assay type: ADME, organism-based; conditions: in vivo
HCT-116 [13] = experiment: Induction of cell cycle arrest in human HCT-116 cells assessed as decrease in CDK4 protein expression upto 10 uM incubated for 24 hrs by Western blot analysis; assay type: functional, cell-based
[14] = Toxicity in athymic nude BALB/c mouse xenografted with human HT-29 cells assessed as pathological changes in liver at 5 to 15 mg/kg, ip administered every other day and measured after 14 days by hematoxylin and eosin staining-based microscopic analysis; assay type: organism-based; conditions: in vivo, 336 h, dose 5-15 mg/kg, time 14 day
HCT-116 [15] = experiment: Induction of apoptosis in human HCT-116 cells assessed as necrotic cells at 10 uM incubated for 24 hrs by Annexin V-FITC/PI staining based flow cytometric analysis (reference value: 1.1 %); assay type: functional
HCT-116 [16] = experiment: Induction of cell cycle arrest in human HCT-116 cells assessed as accumulation of cells at G0/G1 phase at 10 uM by RNase/PI staining based flow cytometry analysis (reference value: 33.08 %); assay type: functional
SW480 = experiment: Cytotoxicity against human SW480 cells assessed as decrease in cell viability incubated for 48 hrs by SRB assay; assay type: functional, cell-based; conditions: SW480, 48 h
[17] = Toxicity in athymic nude BALB/c mouse xenografted with human HCT-116 cells assessed as pathological changes in spleen at 5 to 15 mg/kg, ip administered every other day and measured after 14 days by hematoxylin and eosin staining-based microscopic analysis; assay type: organism-based; conditions: in vivo, 336 h, dose 5-15 mg/kg, time 14 day
HCT-116 [18] = experiment: Induction of apoptosis in human HCT-116 cells assessed as viable cells at 1 uM incubated for 24 hrs by Annexin V-FITC/PI staining based flow cytometric analysis (reference value: 88.8%); assay type: functional; conditions: read-out: Activity
HCT-116 [19] = experiment: Induction of apoptosis in human HCT-116 cells assessed as early apoptotic cells at 5 uM incubated for 24 hrs by Annexin V-FITC/PI staining based flow cytometric analysis (reference value: 8.06 %); assay type: functional
[20] = target: T1, Nuclear factor NF-kappa-B complex (Homo sapiens); experiment: Inhibition of TNF-alpha induced NFkappaB activation in human HCT-116 cells assessed as downregulation of E-selectin gene expression pretreated for 24 hrs followed by TNFalpha stimulation and measured after 2 hrs by quantitative RT-PCR analysis; assay type: cell-based; conditions: dose 1-10 µM, time 26.0 hrs
[21] = target: T1, Nuclear factor NF-kappa-B complex (Homo sapiens); experiment: Inhibition of TNF-alpha induced NFkappaB activation in human HT-29 cells assessed as downregulation of MCP-1 gene expression pretreated for 24 hrs followed by TNFalpha stimulation and measured after 2 hrs by quantitative RT-PCR analysis; assay type: cell-based; conditions: dose 1-10 µM, time 26.0 hrs
[22] = Toxicity in athymic nude BALB/c mouse xenografted with human HCT-116 cells assessed as pathological changes in liver at 5 to 15 mg/kg, ip administered every other day and measured after 14 days by hematoxylin and eosin staining-based microscopic analysis; assay type: organism-based; conditions: in vivo, 336 h, dose 5-15 mg/kg, time 14 day
HT-29 [23] = experiment: Induction of autophagic cell death in human HT-29 cells at 1 to 10 uM pretreated with chloroquine for 1 hr followed by compound addition and measured after 24 hrs by SRB assay; assay type: functional, cell-based; conditions: dose 1-10 µM
HT-29 [24] = experiment: Induction of apoptosis in human HT-29 cells assessed as viable cells at 10 uM incubated for 24 hrs by Annexin V-FITC/PI staining based flow cytometric analysis (reference value: 93 %); assay type: functional; conditions: read-out: Activity
HT-29 [25] = experiment: Induction of apoptosis in human HT-29 cells assessed as late apoptotic cells at 0.25 uM incubated for 24 hrs by Annexin V-FITC/PI staining based flow cytometric analysis (reference value: 1.56 %); assay type: functional
[26] = Toxicity in athymic nude BALB/c mouse assessed as change in serum creatine kinase level at 5 to 15 mg/kg, ip administered every other day and measured after 14 days; assay type: organism-based; conditions: in vivo, 336 h, dose 5-15 mg/kg, time 14 day
[27] = target: T1, Nuclear factor NF-kappa-B complex (Homo sapiens); experiment: Inhibition of TNF-alpha induced NFkappaB activation in human HT-29 cells assessed as downregulation of E-selectin gene expression pretreated for 24 hrs followed by TNFalpha stimulation and measured after 2 hrs by quantitative RT-PCR analysis; assay type: cell-based; conditions: dose 1-10 µM, time 26.0 hrs
HT-29 [28] = experiment: Induction of apoptosis in human HT-29 cells assessed as necrotic cells at 5 uM preincubated with Z-VAD-FMK for 1 hr followed by compound addition and measured after 24 hrs by Annexin V-FITC/PI staining based flow cytometric analysis (reference value: 0.4 %); assay type: functional
[29] = Toxicity in athymic nude BALB/c mouse xenografted with human HT-29 cells assessed as pathological changes in kidney at 5 to 15 mg/kg, ip administered every other day and measured after 14 days by hematoxylin and eosin staining-based microscopic analysis; assay type: organism-based; conditions: in vivo, 336 h, dose 5-15 mg/kg, time 14 day

With `C[C@@H]1CC[C@H]2[C@H](C(=O)c3c(O)c([C@@]4(O)CC[C@@H](O)[C@H]5O[C@H]54)cn(O)c3=O)[C@H](C)C=C[C@@H]2C1` the inhibition (RAW264.7) was “Dose-Dependent Effect”, the Activity (HCT-116 [1]) was “Active” and the Activity (HCT-116 [2]) was “Active”. The inhibition [3] was “Active”, the Activity (HT-29 [4]) was “Active” and the viability at 0.5 µM (HCT-116 [5]) was 51.7%. The Activity (HT-29 [6]) was 32.46%, the viability at 5 µM (HT-29 [7]) was 49.5% and the Activity (HT-29 [8]) was 0.4%. For the same compound, the Activity (HCT-116 [9]) was “Dose-Dependent Effect”, the Activity (HT-29 [10]) was 23.75% and the IC50 (HT-29 [11]) was 570 nM. For the same compound, the half-life [12] was 3.73 h, the Activity (HCT-116 [13]) was “Active” and the Activity [14] was “Non-Toxic”. It also gave an Activity (HCT-116 [15]) of 1.56%, an Activity (HCT-116 [16]) of 46.75% and an IC50 (SW480) of 570 nM. The Activity [17] was “Non-Toxic”, the viability at 1 µM (HCT-116 [18]) was 32% and the Activity (HCT-116 [19]) was 5.47%. For the same compound, the inhibition [20] was “Dose-Dependent Effect”, the inhibition [21] was “Dose-Dependent Effect” and the Activity [22] was “Non-Toxic”. The Activity (HT-29 [23]) was “inactive”, the viability at 10 µM (HT-29 [24]) was 36.8% and the Activity (HT-29 [25]) was 1.4%. The Activity [26] was “Non-Toxic”, the inhibition [27] was “Dose-Dependent Effect” and the Activity (HT-29 [28]) was 0.15%. For the same compound, the Activity [29] was “Non-Toxic”.
